This is an account of results in patent EP0656355A1, “BIPHENYLMETHANE DERIVATIVE AND MEDICINE CONTAINING THE SAME” (WAKUNAGA SEIYAKU KABUSHIKI KAISHA, priority 1992, dated 1994).

Structures are written as SMILES.

Assay [1] deals with T1, angiotensin II (AII) receptor (Rattus norvegicus, UniProt P25095).
T1 construct: Vascular smooth muscle cells, which had been separated from the aorta of a male Wistar rat and cultured on a 24-well multiplate; endogenous in cells; host or cells: primary cultured vascular smooth muscle cells from the aorta of a male Wistar rat
T1 sequence (P25095 1-359): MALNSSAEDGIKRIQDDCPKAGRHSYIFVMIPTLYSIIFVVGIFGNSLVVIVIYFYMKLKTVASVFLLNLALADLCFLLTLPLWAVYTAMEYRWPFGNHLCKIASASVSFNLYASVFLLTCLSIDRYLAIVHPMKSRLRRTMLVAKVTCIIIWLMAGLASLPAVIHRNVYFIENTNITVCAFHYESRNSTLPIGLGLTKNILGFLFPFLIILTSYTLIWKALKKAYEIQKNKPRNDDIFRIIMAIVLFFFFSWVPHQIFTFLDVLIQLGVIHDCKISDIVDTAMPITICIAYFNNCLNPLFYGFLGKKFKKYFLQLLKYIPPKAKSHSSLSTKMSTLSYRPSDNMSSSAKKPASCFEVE
Description: Inhibitory action against the binding with angiotensin II (AII) receptor, 125I-AII competition on cultured rat aortic smooth muscle cells. Particulars: 50% substitution of ¹²⁵I-AII specific binding; ¹²⁵I-AII 2 x 10⁻¹⁰M; one hour at room temperature; rat vascular smooth muscle cells; read-out: IC₅₀. Also on record: species or system male Wistar rat. As for the experimental part: (1) Inhibitory action against the binding with angiotensin II (AII) receptor, using cultured rat aortic smooth muscle cells The present test was conducted in accordance with the method reported by Chiu et al. in European Journal of Pharmacology, 157, 13-21(1988), though after some modifications. […] To each well, ¹²⁵I-AII (final concentration: 2 x 10⁻¹⁰M) was added together with or without a test compound to give a total volume of 0.2 mℓ. Then the wells were incubated for one hour at room temperature to make the ¹²⁵I-AII and the test compound competitively bind to the vascular smooth muscle cells. Each well was thereafter washed with an ice-cold buffer three times to remove unbound ¹²⁵I-AII. To the cells, 0.2 mℓ of a 1 mol/ℓ solution of sodium hydroxide was added to solubilize the bound ¹²⁵I-AII. A bound amount of ¹²⁵I-AII contained in the resulting cell solution was measured by a gamma counter. The above test was conducted for each compound at different concentrations of 3 doses or more. The inhibition rate against the specific binding with ¹²⁵I-AII at each concentration was calculated in accordance with an equation to be set out subsequently herein.

Assay [2] deals with angiotensin II contraction in longitudinal ileac muscles. Description: Inhibitory activity to angiotensin II contraction in longitudinal ileac muscles excised from a guinea pig. It counts as cell-based, Hartley male guinea pig. The settings on record: Cavia porcellus, 20 min; 50% contraction inhibition concentration; 10⁻⁸M angiotensin II; test compound reacted for 20 minutes; guinea pig ileum longitudinal muscle; read-out: IC₅₀. The protocol: (2) Inhibitory activity to angiotensin II contraction in longitudinal ileac muscles excised from a guinea pig
A Hartley male guinea pig (350-450 g in weight) was sacrificed under exsanguination, followed by the excision of its ileum.
A longitudinal muscle tissue (2 cm long) was prepared from the ileum in a manner known per se in the art. The sample was suspended in a 20-mℓ Magnus cylinder filled with a Tylode solution [composition (mM): NaCℓ 137, KCℓ 2.7, CaCℓ₂ 1.88, MgCℓ₂ 1.1, NaH₂PO₄ 0.4, NaH₂CO₃ 11.8 and glucose 5.6). The Tylode solution was incubated at 37°C and saturated with a mixed gas consisting of 95% O₂ + 5% CO₂. Using an isometric transducer ("TB-611T", manufactured by Nihon Kohden Corporation), variations in contraction were measured. The measurement results were recorded on a computer ("PC-9801", manufactured by NEC Corporation).
Under a load of 0.5 g initial tension, the longitudinal muscle sample was equilibrated in a nutrient solution for about one hour while being washed therewith at intervals of 15 minutes. Then, contracture by the administration of 80 mM of KCℓ was repeated twice. After conforming that the contraction occurred stably, the following test was conducted.
First, 10^-8M angiotensin II was administered to the sample and its maximum contraction was recorded. The test compound was then administered to the sample and they were reacted for 20 minutes. Administered again was 10⁻⁸M angiotensin II and the maximum contraction was measured. […] This test was repeated at increased concentrations of the test compound. A 50% contraction inhibition concentration (IC₅₀) was determined in accordance with a linear regressive calculation of the contraction inhibition rates.

As to `CCCCc1nn(Cc2ccc(-c3ccccc3-c3nnn[nH]3)cc2)c(=NC(=O)CCC)s1` [Compound No.13, 2-Butyrylimino-5-n-butyl-3-[2'-(1H-tetrazol-5-yl)biphenyl-4-yl]methyl-1,3,4-thiadiazoline], the IC50 in assay [1] was found to be 14 nM; in assay [2], 24 nM.

Take `CCCC(=O)N=c1sc(C2CC2)nn1Cc1ccc(-c2ccccc2-c2nnn[nH]2)cc1` [Compound No.11, 2-Butyrylimino-5-cyclopropyl-3-[2'-(1H-tetrazol-5-yl)biphenyl-4-yl]methyl-1,3,4-thiadiazoline]: the IC50 in assay [1] came to 6.5 nM; in assay [2], 26 nM.

As to `O=C(N=c1sc(C2CC2)nn1Cc1ccc(-c2ccccc2-c2nn[nH]n2)cc1)C1CC1` [Compound No.23, 2-Cyclopropylcarbonylimino-5-cyclopropyl-3-[2'-(1H-tetrtazol-5-yl)biphenyl-4-yl]methyl-1,3,4-thiadiazoline], the IC50 in assay [1] is 31 nM.

On to `CCCCC(=O)N=c1sc(CC)nn1Cc1ccc(-c2ccccc2-c2nnn[nH]2)cc1` [Compound No.31, 2-Valerylimino-5-ethyl-3-[2'-(1H-tetrazol-5-yl)biphenyl-4-yl]methyl-1,3,4-thiadiazoline], for which the IC50 in assay [1] is 17 nM.

For `CCCc1sc(=NC(=O)C2CC2)n(Cc2ccc(-c3ccccc3-c3nnn[nH]3)cc2)c1C(=O)O` [Compound No.244, 2-Cyclopropylcarbonylimino-3-[2'-(1H-tetrazol-5-yl)biphenyl-4-yl]methyl-5-n-propylthiazoline-4-carboxylic acid], the IC50 in assay [2] turned out to be 0.76 nM.

`CCCC(=O)N=c1sc(CC)nn1Cc1ccc(-c2ccccc2-c2nnn[nH]2)cc1` [Compound No.1, 2-Butyrylimino-5-ethyl-3-[2'-(1H-tetrazol-5-yl)biphenyl-4-yl]methyl-1,3,4-thiadiazoline]: the IC50 turned out to be 8 nM in assay [1] and 23 nM in assay [2].

As for `CCc1nn(Cc2ccc(-c3ccccc3-c3nnn[nH]3)cc2)c(=NC(=O)c2c(F)ccc(F)c2C(=O)O)s1` [Compound No.139, 3,6-Difluoro-N-[5-Ethyl-3-[2'-(1H-tetrazol-5-yl)biphenyl-4-yl]methyl-1,3,4-thiadiazoline-2-yliden] phthalamic acid], the IC50 in assay [2] came to 7.4 nM.

As for `CCc1nn(Cc2ccc(-c3ccccc3-c3nnn[nH]3)cc2)c(=NC(=O)c2ccccc2Cl)s1` [Compound No.68, 2-(2-Chlorobenzoyl)imino-5-ethyl-3-[2'-(1H-tetrazol-5-yl)biphenyl-4-yl]methyl-1,3,4-thiadiazoline], the IC50 in assay [1] was 5.7 nM.

Take `CCCC(=O)N(Cc1ccc(-c2ccccc2-c2nn[nH]n2)cc1)c1nnc(CC)s1` [Compound No.2, 2-[N-Butyryl-N-(2'-(1H-tetrazol-5-yl)biphenyl-4-yl)methyl]amino-5-ethyl-1,3,4-thiadiazole]: the IC50 was 13 nM in assay [1] and 11 nM in assay [2].

Regarding `CCc1nn(Cc2ccc(-c3ccccc3-c3nnn[nH]3)cc2)c(=NC(=O)C(F)(F)F)s1` [Compound No.50, 2-Trifluoroacetylimino-5-ethyl-3-[2'-(1H-tetrazol-5-yl)biphenyl-4-yl]methyl-1,3,4-thiadiazoline], the IC50 in assay [2] came out at 4.9 nM.

Take `CCCCc1nn(Cc2ccc(-c3ccccc3-c3nnn[nH]3)cc2)c(=NC(=O)CC)s1` [Compound No.7, 2-Propionylimino-5-n-butyl-3-[2'-(1H-tetrazol-5-yl)biphenyl-4-yl]methyl-1,3,4-thiadiazoline]: the figures for the IC50 in assay [1] and in assay [2] were 6.8 nM and 21 nM, respectively.

As for `CCCCC(=O)N(Cc1ccc(-c2ccccc2-c2nn[nH]n2)cc1)c1nnc(C2CC2)s1` [Compound No.34, 2-[N-Valeryl-N-(2'-(1H-tetrazol-5-yl)biphenyl-4-yl)methyl]amino-5-cyclopropyl-1,3,4-thiadiazole], in assay [1], the IC50 was determined as 10 nM.

`CCCc1nn(Cc2ccc(-c3ccccc3-c3nnn[nH]3)cc2)c(=NC(=O)C2=C(C(=O)O)CCC2)s1` [Compound No.131, 2-[[5-n-Propyl-3-[2'-(1H-tetrazol-5-yl)biphenyl-4-yl]methyl-1,3,4-thiadiazoline-2-yliden]aminocarbonyl]-1-cyclopenten carboxylic acid]: the IC50 in assay [2] stood at 0.84 nM.

On to `CCCCC(=O)N(Cc1ccc(-c2ccccc2-c2nn[nH]n2)cc1)c1nnc(C)s1` [Compound No.30, 2-[N-Valeryl-N-(2'-(1H-tetrazol-5-yl)biphenyl-4-yl)methyl]amino-5-methyl-1,3,4-thiadiazole], for which the IC50 in assay [2] was determined as 29 nM.

Regarding `O=C(N=c1sc(-c2ccccc2)nn1Cc1ccc(-c2ccccc2-c2nnn[nH]2)cc1)C1CC1` [Compound No.27, 2-Cyclopropylcarbonylimino-5-phenyl-3-[2'-(1H-tetrazol-5-yl)biphenyl-4-yl]methyl-1,3,4-thiadiazoline], the IC50 in assay [2] stood at 10 nM.

Regarding `CCCCc1nnc(N(Cc2ccc(-c3ccccc3-c3nn[nH]n3)cc2)C(=O)CCC)s1` [Compound No.14, 2-[N-Butyryl-N-(2'-(1H-tetrazol-5-yl)biphenyl-4-yl)methyl]amino-5-n-butyl-1,3,4-thiadiazole], the figures for the IC50 in assay [1] and in assay [2] were 9.8 nM and 36 nM, respectively.

Take `CCCCc1sc(=NC(=O)C2CC2)n(Cc2ccc(-c3ccccc3-c3nnn[nH]3)cc2)c1C(=O)O` [Compound No.245, 2-Cyclopropylcarbonylimino-3-[2'-(1H-tetrazol-5-yl)biphenyl-4-yl]methyl-5-n-butylthiazoline-4-carboxylic acid]: in assay [2], the IC50 came out at 0.35 nM.

With `O=C(O)C1=C(C(=O)N=c2sc(C3CC3)nn2Cc2ccc(-c3ccccc3-c3nn[nH]n3)cc2)CCC1` [Compound No.132, 2-[[5-Cyclopropyl-3-[2'-(1H-tetrazol-5-yl)biphenyl-4-yl]methyl-1,3,4-thiadiazoline-2-yliden]aminocarbonyl]-1-cyclopetenecarboxylic acid], the IC50 in assay [2] stood at 0.4 nM.

In the case of `CCc1nn(Cc2ccc(-c3ccccc3-c3nnn[nH]3)cc2)c(=NC(=O)c2cscc2C(=O)O)s1` [Compound No.143, 4-[[5-Ethyl-3-[2'-(1H-tetrazol-5-yl)biphenyl-4-yl]methyl-1,3,4-thiadiazoline-2-yliden]aminocarbonyl] thiophene-3-carboxylic acid], the IC50 in assay [2] is 0.64 nM.

With `CCCC(=O)N(Cc1ccc(-c2ccccc2-c2nn[nH]n2)cc1)c1nnc(C2CC2)s1` [Compound No.12, 2-[N-Butyryl-N-(2'-(1H-tetrazol-5-yl)biphenyl-4-yl)methyl]amino-5-cyclopropyl-1,3,4-thiadiazole], the IC50 in assay [1] turned out to be 32 nM; in assay [2], 28 nM.

Take `CCc1nn(Cc2ccc(-c3ccccc3-c3nnn[nH]3)cc2)c(=NC(=O)C2CC2)s1` [Compound No.19, 2-Cyclopropylcarbonylimino-5-ethyl-3-[2'-(1H-tetrazol-5-yl)biphenyl-4-yl]methyl-1,3,4-thiadiazoline]: the IC50 in assay [1] was 15 nM.

With `O=C(O)c1ccccc1C(=O)N=c1sc(C2CC2)nn1Cc1ccc(-c2ccccc2-c2nnn[nH]2)cc1` [Compound No.137, N-[5-Cyclopropyl-3-[2'-(1H-tetrazol-5-yl)biphenyl-4-yl]methyl-1,3,4-thiadiazoline-2-yliden]phthalamic acid], the IC50 in assay [2] is 0.9 nM.

On to `CCc1nn(Cc2ccc(-c3ccccc3-c3nnn[nH]3)cc2)c(=NS(=O)(=O)c2ccccc2C(=O)OC)s1` [Compound No.151, 2-[[5-Ethyl-3-[2'-(1H-tetrazol-5-yl)biphenyl-4-yl]methyl-1,3,4-thiadiazoline-2-yliden]aminosulfonyl]benzoic acid methyl ester], for which, in assay [2], the IC50 was 0.8 nM.
